Test results reported in the NIST ThermoML archive (doi:10.1016/j.jct.2016.06.004).

Assay: xn = mol fraction of the nth substance listed
Conditions: Ring tensiometer

C[S+](C)[O-] [dimethyl sulfoxide] + CC(C)O
surface tension liquid-gas [mN/m]
Conditions | 298.15 K | 308.15 K | 318.15 K | 328.15 K
x2 = 0 | 42.43 | 41.3 | 40.17 | 39.08
x2 = 0.044 | 39.17 | 38.58 | 37.9 | 36.91
x2 = 0.085 | 36.42 | 35.88 | 34.99 | 34.12
x2 = 0.157 | 33.83 | 32.83 | 32.05 | 31.15
x2 = 0.245 | 30.89 | 30.21 | 29.55 | 28.39
x2 = 0.338 | 28.56 | 27.7 | 27.02 | 26
x2 = 0.441 | 26.67 | 25.88 | 25.19 | 24.1
x2 = 0.537 | 25.15 | 24.46 | 23.87 | 22.79
x2 = 0.619 | 24.19 | 23.39 | 22.81 | 21.74
x2 = 0.676 | 23.19 | 22.84 | 22.06 | 21.08
x2 = 0.719 | 23.03 | 22.48 | 21.67 | 20.72
x2 = 0.751 | 22.84 | 22.21 | 21.43 | 20.45
x2 = 0.86 | 22 | 21.21 | 20.51 | 19.59
